Source: patent US8076371B2, “Gallium compositions for the treatment of liver cancer and methods of use” (priority 2006, dated 2011)

Key:
[1] = test system: poly(ADP-ribose) polymerase (PARP) in HCC cell lines; test: Immunoblotting, PARP assay for apoptosis; assay type: cell-based, human; settings: HCC cell lines Hep 3B, Hep 40, and SNU475; 10 μM or 30 μM, six days exposure
Description: (§1) The activity of gallium maltolate and gallium nitrate was studied in vitro on several human hepatocellular carcinoma (HCC) cell lines (Hep3B, HepG2, SNU475, and Hep 40). Further information on these experiments is reported by Chua et al., Anticancer Research 26:1739-1744, 2006.
(§2) Immunoblotting: Cells were exposed to 10 μM or 30 μM gallium maltolate for six days; whole cell lysates were then prepared and total protein quantified using the Bradford Assay. Approximately 20 μg of protein was electrophoresed on pre-cast gels and transferred onto PVDF membranes. Non-specific sites were blocked by incubation with 5% non-fat milk in TBS-1% Tween solution for 1 hr at room temperature. Proteins were then detected with specific antibodies against CD71 (transferrin receptor 1) or PARP at recommended dilutions, followed by appropriate HRP-conjugated secondary antibodies.

[2] = test system: human hepatocellular carcinoma (HCC) cell lines (Hep3B, HepG2, SNU475, and Hep 40); test: Assessment of apoptotic cell morphology (hematoxylin and eosin, light microscope); assay type: cell-based; settings: 30 μM, six days exposure; all four HCC cell lines
Description: as §1
Assessment of apoptotic cell morphology: After six days exposure to gallium maltolate at either 10 μM or 30 μM, cells were fixed using absolute methanol at −20° C. for 10 min, then stained with hematoxylin and eosin. Cell morphology was then observed with a light microscope.

[3] = test system: CD71 (transferrin receptor 1) in HCC cell lines; test: Immunoblotting, CD71 (transferrin receptor 1) protein level; assay type: cell-based, human; settings: six-day exposure to 10 μM or 30 μM; all four HCC cell lines
Description: as §1, §2

Cc1occc(=O)c1[O-].Cc1occc(=O)c1[O-].Cc1occc(=O)c1[O-].[Ga+3] [gallium maltolate, tris(3-hydroxy-2-methyl-4H-pyran-4-onato)gallium]
poly(ADP-ribose) polymerase (PARP) assay for apoptosis [1]: positive | cellular morphology (apoptosis) [2]: indicative of apoptosis | protein level of CD71 (transferrin receptor 1) [3]: dose-dependent increase
